# Results taken from ChEMBL document CHEMBL1177693, “Antimalarials from nature” (Bioorg Med Chem, 2009).
# Assays:
# Plasmodium falciparum [1] = test: Antimalarial activity against Plasmodium falciparum W2; format: functional, organism-based
# Plasmodium falciparum [2] = test: Antimalarial activity against Plasmodium falciparum FCA 20; format: functional, organism-based
# Plasmodium falciparum [3] = test: Antimalarial activity against Plasmodium falciparum FCB1-R; format: functional, organism-based
# Plasmodium falciparum [4] = test: Antimalarial activity against Plasmodium falciparum 3D7; format: functional, organism-based
# [5] = target: T1, Enoyl-acyl-carrier protein reductase (Plasmodium falciparum) (UniProt Q965D5); test: (§1) Inhibition of Plasmodium falciparum Fabl
# T1 sequence (whole entry): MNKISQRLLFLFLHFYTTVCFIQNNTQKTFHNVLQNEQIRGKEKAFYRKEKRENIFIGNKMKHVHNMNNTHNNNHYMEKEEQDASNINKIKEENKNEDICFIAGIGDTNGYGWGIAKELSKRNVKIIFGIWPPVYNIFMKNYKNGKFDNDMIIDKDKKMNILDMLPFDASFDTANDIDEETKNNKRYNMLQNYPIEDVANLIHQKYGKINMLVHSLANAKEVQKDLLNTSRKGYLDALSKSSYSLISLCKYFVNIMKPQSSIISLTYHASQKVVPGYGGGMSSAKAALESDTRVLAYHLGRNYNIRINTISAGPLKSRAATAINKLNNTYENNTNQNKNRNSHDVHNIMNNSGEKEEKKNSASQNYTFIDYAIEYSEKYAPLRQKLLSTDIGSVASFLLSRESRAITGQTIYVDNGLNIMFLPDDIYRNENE
# Plasmodium falciparum [6] = test: (§2) Inhibition of Plasmodium falciparum FabG; conditions: concentration not given here
# Plasmodium falciparum [7] = test: Antimalarial activity against Plasmodium falciparum D6; format: functional, organism-based
# Plasmodium falciparum [8] = test: Antimalarial activity against Plasmodium falciparum FCR3F86; format: functional, organism-based
# Plasmodium falciparum [9] = test: Antimalarial activity against chloroquine-sensitive Plasmodium falciparum; format: functional, organism-based
# Plasmodium falciparum [10] = test: Antimalarial activity against chloroquine-resistant Plasmodium falciparum; format: functional, organism-based
# Plasmodium falciparum [11] = test: Antimalarial activity against Plasmodium falciparum infected in perorally dosed mice (Mus musculus) administered for 4 days; format: functional; conditions: po, 96 h
# Plasmodium falciparum [12] = test: Antimalarial activity against Plasmodium falciparum infected in intravenously dosed mice (Mus musculus) administered for 4 days; format: functional; conditions: iv, 96 h
# Plasmodium falciparum [13] = test: Antimalarial activity against Plasmodium falciparum infected in erythrocytes; format: functional, organism-based
# [14] = Cytotoxicity against erythrocytes assessed as morphological changes; format: cell-based; conditions: Erythrocyte
# Plasmodium falciparum [15] = test: Antimalarial activity against chloroquine-susceptible Plasmodium falciparum D6; format: functional, organism-based
# Plasmodium falciparum [16] = test: Antimalarial activity against chloroquine-resistant Plasmodium falciparum W2; format: functional, organism-based
# Plasmodium falciparum [17] = test: Antimalarial activity against multidrug-resistant Plasmodium falciparum K1 infected in erythrocytes; format: functional, organism-based
# Plasmodium falciparum [18] = test: Antimalarial activity against drug-susceptible Plasmodium falciparum NF54 infected in erythrocytes; format: functional, organism-based
# Plasmodium falciparum [19] = test: Antimalarial activity against Plasmodium falciparum FCA; format: functional, organism-based
# Plasmodium falciparum [20] = test: Antimalarial activity against chloroquine-sensitive Plasmodium falciparum D10; format: functional, organism-based
# [21] = target: T2, Enoyl-acyl-carrier protein reductase (Plasmodium falciparum, UniProt Q965D5); test: as §1
# T2 sequence (Q965D5 whole entry): T1 sequence (whole entry)
# [22] = as §2
# Plasmodium falciparum [23] = test: Antimalarial activity against chloroquine-sensitive Plasmodium falciparum 3D7; format: functional, organism-based
# Plasmodium falciparum [24] = test: Antimalarial activity against Plasmodium falciparum after 48 hrs; format: functional, organism-based
# Plasmodium falciparum [25] = test: Antimalarial activity against Plasmodium falciparum after 32 hrs; format: functional, organism-based
# Plasmodium falciparum [26] = test: Antimalarial activity against Plasmodium falciparum after 72 hrs; format: functional, organism-based
compound,measurement,setting,value
C=Cc1c[n+]2c(c(O)c1C[C@H]1c3[nH]c4ccccc4c3CCN1C)-c1[nH]c3c([C@H]4CCCN4C)c(O)ccc3c1CC2 [CHRYSOPENTAMINE],IC50,Plasmodium falciparum [1],500 nM
same,IC50,Plasmodium falciparum [2],500 nM
same,IC50,Plasmodium falciparum [3],500 nM
CCCCCCCc1cc(/C=C2\N=C(c3ccc[nH]3)C=C2OC)[nH]c1C [HEPTYL PRODIGIOSIN],IC50,Plasmodium falciparum [4],70 nM
C=C1C(=O)OC[C@H]1[C@H](O)/C=C(\C)CC(=O)C=C(C)C,fold change (FC),[5],5
same,inhibition,Plasmodium falciparum [6],25%
Cc1cc(=O)c(O)cc2c1C[C@H]1CC(C)(C)/C=C/C[C@@]3(C)Oc4cc(O)c(=O)cc(C)c4C[C@@H]3C[C@H](O)[C@]1(C)O2 [PYCNIDIONE],IC50,Plasmodium falciparum [7],750 nM
same,IC50,Plasmodium falciparum [8],280 nM
same,IC50,Plasmodium falciparum [1],370 nM
"Cc1c2c(cc3c1C(=O)C=C(C(C)C)C3=O)C(C)(C)CCC2 [12,16-DIDEOXY AEGYPTINONE B]",IC50,Plasmodium falciparum [9],1.3 µg/mL
same,IC50,Plasmodium falciparum [10],1.4 µg/mL
C[C@H]1[C@@H](CC(COC(=O)c2cc[n+]([O-])cc2)C[C@H]2O[C@@H]3O[C@]4(C)CC[C@H]5[C@H](C)CC[C@@H]([C@H]2C)[C@@]35OO4)O[C@@H]2O[C@]3(C)CC[C@H]4[C@H](C)CC[C@@H]1[C@@]24OO3 (some centres not stated),ED50,Plasmodium falciparum [11],2 mg/kg
same,ED50,Plasmodium falciparum [12],0.8 mg/kg
CC(C)c1ccc2c(c1)CC[C@H]1[C@](C)(CO)CCC[C@]21C [POMIFERIN A],IC50,Plasmodium falciparum [13],25.6 µM
same,IC50,[14],28 µM
CO[C@H]1C[C@@H]([C@@H](O)[C@@](C)(OC)[C@H](C)OC)O[C@]2(O[C@](C)([C@H]3CC[C@@H]([C@H]4CC[C@H]([C@H]5O[C@](C)(O)[C@H](C)[C@@H](O)[C@@H]5C)O4)O3)[C@H](OC)[C@H]2C)[C@H]1C,IC50,Plasmodium falciparum [15],0.1 µg/mL
same,IC50,Plasmodium falciparum [16],0.1 µg/mL
COc1cc(/C=C2/Cc3c(OC(C)=O)cc(OC(C)=O)cc3O2)cc(OC)c1OC(C)=O,IC50,Plasmodium falciparum [17],7 nM
same,IC50,Plasmodium falciparum [18],180 nM
C=C1C(=O)O[C@@H]2/C=C(/C)C(=O)/C=C/[C@](C)(O)C[C@@H](OC(=O)C(C)C)[C@@H]12 [TAGITININ C],IC50,Plasmodium falciparum [19],0.33 µg/mL
COc1cc(O)cc2c1c(=O)c1ccccc1n2C [TEGERRARDIN A],IC50,Plasmodium falciparum [20],12.3 µM
C=C1C(=O)OC[C@H]1[C@@H](/C=C(\C)CC(=O)C=C(C)C)OC(C)=O,IC50,[21],65.3 µM
same,IC50,[22],20 µg/mL
COc1cc(O)c2c(c1)O[C@H](c1ccccc1)CC2=O [PINOSTROBIN],IC50,Plasmodium falciparum [23],> 100 µM
CC(C)=CCC/C(C)=C/CC/C(C)=C/CC[C@@]1(C)[C@H](CCCO)/C(=C(/C)C=O)CC[C@]1(C)O [IRIDAL],IC50,Plasmodium falciparum [24],26 µg/mL
same,IC50,Plasmodium falciparum [25],14 µg/mL
same,IC50,Plasmodium falciparum [26],1.8 µg/mL
